According to patent US5696151A, “Compounds useful for the inhibition of the replication of HIV-1 and HIV-1 mutants” (priority 1995, dated 1997):
Converted amounts (≈) assume the structure as drawn.

What was measured:
Type in all cases: cell-based
HIV-1/106-Ala = experiment: Inhibition of HIV-1 induced syncytium formation in CEM cells, RT mutant 106-Ala; settings: Human immunodeficiency virus 1, CCRF-CEM, 96 h, Table 2B, day 4, averages of 2 to 3 independent experiments, read-out: Antiviral Activity of Comparative Compounds EC50, 106-Ala
From the text: (§1) CEM cells were obtained from the American Tissue Cell Culture Collection (Rockville, Md.). HIV-1(IIIB) was originally obtained from the culture supernatant of persistently HIV-1-infected H9 cells and was provided by R. C. Gallo and M. Popovic (National Cancer Institute, National Institutes of Health, Bethesda, Md.). […] 67: 5353-5359 (1993); HIV-1/Lys-138 ("Lys-138") was selected for resistance against TSAO-m^3T as described in Balzarini et al, Virology 192: 246-253 (1993) and Balzarini et al, Proc. Nat. Acad. Sci. USA 90: 6952-6956 (1993); HIV-1/181-Cys ("181-Cys") was selected for resistance against pyridinone L-697,661 as described in Balzarini et al, Virology 192: 246-253 (1993); and HIV-1/188-His ("188-His") was selected for resistance against HEPT as described in Balzarini et al, Mol. Pharmocol. 44: 694-701 (1993). 188-His was then further converted to HIV-1/188-Leu "188-Leu") upon further passage in cell culture in the absence of the HEPT.
(§2) CEM cells were suspended at ≈300,000 cells per ml of culture medium and infected with approximately 100 CCID50 (CCID50 being the 50% cell culture infective dose) of HIV-1(IIIB) or one of the HIV-1 RT mutant strains described above. Then 100 μl of the infected cell suspensions was added to 200 μl microtiter plate wells containing 100 μl of appropriate serial (5-fold) dilutions of the test compounds. The inhibitory effect of the test compounds on HIV-1 induced syncytium formation in CEM cells was examined microscopically on day 4 post infection.

in vitro = settings: human, cem cells, CC50 (50% cytostatic concentration), Table 2B; CEM cell proliferation; averages of 2 to 3 independent experiments
From the text: as §1
^b 50% cytostatic concentration (i.e., compound concentration require
to inhibit CEM cell proliferation by 50%)

HIV-1/Lys-138 = experiment: Inhibition of HIV-1 induced syncytium formation in CEM cells, RT mutant 138-Lys; settings: Human immunodeficiency virus 1, CCRF-CEM, 96 h, Table 2B, day 4, averages of 2 to 3 independent experiments, read-out: Antiviral Activity of Comparative Compounds EC50, 138-Lys
From the text: as §1, §2

HIV-1(IIIB) = experiment: Inhibition of HIV-1 induced syncytium formation in CEM cells, wild type; settings: Human immunodeficiency virus 1, IIIB, CCRF-CEM, 96 h, Table 2B, WT = HIV-1(IIIB), day 4, averages of 2 to 3 independent experiments, read-out: Antiviral Activity of Comparative Compounds EC50, WT
From the text: as §1, §2

HIV-1/100-Ile = experiment: Inhibition of HIV-1 induced syncytium formation in CEM cells, RT mutant 100-Ile; settings: Human immunodeficiency virus 1, CCRF-CEM, 96 h, Table 2B, day 4, averages of 2 to 3 independent experiments, read-out: Antiviral Activity of Comparative Compounds EC50, 100-Ile
From the text: as §1, §2

HIV-1/181-Cys = experiment: Inhibition of HIV-1 induced syncytium formation in CEM cells, RT mutant 181-Cys; settings: Human immunodeficiency virus 1, CCRF-CEM, 96 h, Table 2B, day 4, averages of 2 to 3 independent experiments, read-out: Antiviral Activity of Comparative Compounds EC50, 181-Cys
From the text: as §1, §2

| SMILES | EC50 (HIV-1/106-Ala) [µg/mL] | CC50 (in vitro) [µg/mL] | EC50 (HIV-1/Lys-138) [µg/mL] | EC50 (HIV-1(IIIB)) [µg/mL] | EC50 (HIV-1/100-Ile) [µg/mL] | EC50 (HIV-1/181-Cys) [µg/mL] |
| --- | --- | --- | --- | --- | --- | --- |
| Cc1occc1C(=S)Nc1ccc(Cl)c(C(=O)OC(C(C)C)C(C)C)c1 [Compound 102] | 0.85 (≈ 2.16 µM) | 3.7 (≈ 9.39 µM) | 0.08 (≈ 0.203 µM) | 0.03 (≈ 0.0762 µM) | 0.85 (≈ 2.16 µM) | 0.65 (≈ 1.65 µM) |
| Cc1occc1C(=S)Nc1ccc(Cl)c(C(=O)OCC(C)C)c1 [Compound 103] | 0.075 (≈ 0.213 µM) | 8.5 (≈ 24.2 µM) | 0.06 (≈ 0.171 µM) | 0.01 (≈ 0.0284 µM) | 0.19 (≈ 0.54 µM) | 0.07 (≈ 0.199 µM) |
| C=CCOC(=O)c1cc(NC(=S)c2ccoc2C)ccc1Cl [Compound 104] | 0.4 (≈ 1.19 µM) | 11 (≈ 32.8 µM) | 0.2 (≈ 0.596 µM) | 0.01 (≈ 0.0298 µM) | 0.65 (≈ 1.94 µM) | 0.37 (≈ 1.1 µM) |
| Cc1occc1C(=S)Nc1ccc(Cl)c(C(=O)OCC2CC2)c1 [Compound 105] | 0.2 (≈ 0.572 µM) | 6.7 (≈ 19.2 µM) | 0.085 (≈ 0.243 µM) | 0.015 (≈ 0.0429 µM) | 0.4 (≈ 1.14 µM) | 0.07 (≈ 0.2 µM) |
| Cc1occc1C(=S)Nc1ccc(Cl)c(C(=O)OCC(F)(F)F)c1 [Compound 106] | 0.08 (≈ 0.212 µM) | > 100 | 0.065 (≈ 0.172 µM) | 0.007 (≈ 0.0185 µM) | 0.5 (≈ 1.32 µM) | 0.085 (≈ 0.225 µM) |
| CCC(CC)OC(=O)c1cc(NC(=S)c2ccoc2C)ccc1Cl [Compound 107] | 0.3 (≈ 0.82 µM) | 16 (≈ 43.7 µM) | 0.15 (≈ 0.41 µM) | 0.04 (≈ 0.109 µM) | 0.6 (≈ 1.64 µM) | 0.3 (≈ 0.82 µM) |
| CCC(CC)COC(=O)c1cc(NC(=S)c2ccoc2C)ccc1Cl [Compound 108] | 0.08 (≈ 0.211 µM) | 7 (≈ 18.4 µM) | 0.07 (≈ 0.184 µM) | 0.007 (≈ 0.0184 µM) | 0.27 (≈ 0.711 µM) | 0.08 (≈ 0.211 µM) |
| Cc1occc1C(=S)Nc1ccc(Cl)c(C(=O)OC2CCCC2)c1 [Compound 109] | 0.04 (≈ 0.11 µM) | 4.3 (≈ 11.8 µM) | 0.035 (≈ 0.0962 µM) | 0.005 (≈ 0.0137 µM) | 0.17 (≈ 0.467 µM) | 0.045 (≈ 0.124 µM) |
| C=CC(C)(C)OC(=O)c1cc(NC(=S)c2ccoc2C)ccc1Cl [Compound 110] | 0.2 (≈ 0.55 µM) | 25 (≈ 68.7 µM) | 0.1 (≈ 0.275 µM) | 0.04 (≈ 0.11 µM) | 4 (≈ 11 µM) | 0.5 (≈ 1.37 µM) |
| C=CCON=Cc1cc(NC(=S)c2ccoc2C)ccc1Cl [Compound 111] | 0.085 (≈ 0.254 µM) | 12 (≈ 35.8 µM) | 0.077 (≈ 0.23 µM) | 0.007 (≈ 0.0209 µM) | 0.5 (≈ 1.49 µM) | 0.3 (≈ 0.896 µM) |
| C#CCON=Cc1cc(NC(=S)c2ccoc2C)ccc1Cl [Compound 112] | 0.35 (≈ 1.05 µM) | 10 (≈ 30 µM) | 0.5 (≈ 1.5 µM) | 0.025 (≈ 0.0751 µM) | 0.75 (≈ 2.25 µM) | 0.8 (≈ 2.4 µM) |
| Cc1occc1C(=S)Nc1ccc(Cl)c(C=NOC2CCCC2)c1 [Compound 113] | 0.085 (≈ 0.234 µM) | 5.4 (≈ 14.9 µM) | 0.15 (≈ 0.413 µM) | 0.023 (≈ 0.0634 µM) | 0.27 (≈ 0.744 µM) | 0.13 (≈ 0.358 µM) |
| Cc1occc1C(=S)Nc1ccc(Cl)c(OCC(=O)OC(C)(C)C)c1 [Compound 115] | 0.2 (≈ 0.524 µM) | 4.3 (≈ 11.3 µM) | 0.77 (≈ 2.02 µM) | 0.29 (≈ 0.759 µM) | 0.65 (≈ 1.7 µM) | 0.5 (≈ 1.31 µM) |
| CCOC(=O)CSc1cc(NC(=S)c2ccoc2C)ccc1Cl [Compound 116] | 5.5 (≈ 14.9 µM) | ≥ 100 | 0.6 (≈ 1.62 µM) | 0.085 (≈ 0.23 µM) | 1.8 (≈ 4.87 µM) | 2 (≈ 5.41 µM) |
| C#CCOc1cc(NC(=S)c2ccoc2C)ccc1Cl [Compound 117] | 0.75 (≈ 2.45 µM) | 18 (≈ 58.9 µM) | 0.35 (≈ 1.14 µM) | 0.06 (≈ 0.196 µM) | 5 (≈ 16.4 µM) | 4 (≈ 13.1 µM) |
